These results are taken from BindingDB's records for doi:10.1021/jm00101a007 (Centre De Recherche De Vitry-Alfortville, 1992).

One assay deals with Leukotriene B4 receptor (Cavia porcellus). Put plainly: Inhibition of [3H]LTB4 binding to Leukotriene B4 receptor in the guinea pig spleen membranes.
With `O=C(O)CCCCCCOc1cc(-c2ccccc2)c2ccccc2n1`, the IC50 came to 1800 nM.

Regarding `CC(CCCCOc1cc(-c2ccccc2)c2ccccc2n1)C(=O)O` (stereo unspecified), the IC50 amounted to 550 nM.

`CC(C)(CCCCOc1cc(-c2ccc(N)cc2)c2ccccc2n1)C(=O)O`: the IC50 stood at 40 nM. This IC50 lies about 14-fold lower than the previous one.

In turn, `O=C(O)CCCCCOc1cc(-c2ccc(Cl)cc2)c2ccccc2n1` had an IC50 of 30 nM.

`CC(C)(CCCCOc1cc(-c2ccccc2)c2cc(Cl)ccc2n1)C(=O)O` came in with an IC50 of 2500 nM.

With `CC(C)(CCCCOc1cc(-c2ccc(Cl)cc2)c2ccccc2n1)C(=O)O`, the IC50 was 15 nM.

For the compound `CC(C)(CCCCOc1cc(-c2ccc(Cl)cc2)c2ccccc2n1)c1nnn[nH]1`, the IC50 was found to be 30 nM.

For `CC(C)(CCCCOc1cc(-c2ccccc2)c2ccccc2n1)c1nnn[nH]1`, the 50% inhibitory concentration (IC50) came out at 400 nM.

For the compound `CC(C)(CCCCOc1cc(-c2cccc(Cl)c2)c2ccccc2n1)C(=O)O`, the IC50 worked out at 1100 nM.

Compound `CC(C)(CCCCOc1cc(-c2ccc(C(F)(F)F)cc2)c2ccccc2n1)C(=O)O` gave an IC50 of 300 nM.

As for `Cc1ccc(-c2cc(OCCCCC(C)(C)C(=O)O)nc3ccccc23)cc1`, the IC50 was found to be 30 nM. This IC50 is about 10-fold lower than that of the compound before.

As for `COc1cccc(-c2cc(OCCCCC(C)(C)C(=O)O)nc3ccccc23)c1`, the IC50 stood at 300 nM.

`CC(C)(CCCCOc1cc(-c2ccc([N+](=O)[O-])cc2)c2ccccc2n1)C(=O)O` registered an IC50 of 150 nM.

Take `c1ccc(-c2cc(OCCCCCc3nnn[nH]3)nc3ccccc23)cc1`: the IC50 amounted to 500 nM.

In turn, `O=C(O)CCCCCOc1cc(-c2ccccc2)c2ccccc2n1` returned an IC50 of 700 nM. This IC50 and that of the compound before are within 1.5-fold of each other.

The target is the same in a further assay. Described as above. This is another data set of the same source.
In the case of `CC(C)(CCCCOc1cc(-c2ccccc2)c2ccccc2n1)C(=O)O`, the IC50 worked out at 183 nM.
